How the values were obtained:
MDA-MB-436 cells [1] = experiment: NAD+/NADH ratio measurement assay; type: cell-based, human; conditions: BAY-876, 5 days
Experimental: Cells were seeded in six-well plates followed by overnight incubation. The next day, cells were treated with DMSO or the indicated concentration of BAY-876. After 5 days, cells were lysed, and intracellular metabolites were measured using commercial kits detecting acetyl-CoA (PicoProbe, Abcam ab87546) and NAD^+/NADH ratio (Abcam 65348).

MDA-MB-436 cells [2] = experiment: Glucose uptake assay; type: cell-based, human; conditions: 3 µM BAY-876, 5 days
Experimental: Glucose uptake was assayed according to the established protocol from a commercial glucose uptake kit (ab136955; Abcam). In brief, MDA-MB-436 cells were seeded in six-well plates followed by overnight incubation. The next day cells were treated with DMSO or indicated concentration of BAY-876. After 5 days, cells were washed three times with cold phosphate-buffered saline (PBS) and lysed with extraction buffer, frozen at −80 °C for 10 min and heated at 85 °C for 40 min. After cooling on ice for 5 min, the lysates were neutralized by adding neutralization buffer and centrifuged. The remaining lysate was then diluted with assay buffer. Finally, the colorimetric endproduct generation was set up by two amplification steps according to the manufacturer’s instructions in the kit and then detected at 412 nm using iMark microplate reader (Bio-Rad).

GCN5 = target: GCN5; design: method as in ref 1 (suppl.), 25 (main text); conditions: ITC data; ref 1 (suppl.), 25; cited from earlier work
MDA-MB436 cells = experiment: Cell apoptosis assay (caspase-3/7); type: cell-based, human; conditions: 3 μM OF-1 + 3 μM BAY-876, 5 days, versus either alone
Experimental: Cells were seeded into 96-well plates at 3000 cells per well and left to adhere overnight. Then, cells were treated with DMSO or BAY-876 for 5 days, followed by addition of Incucyte TM Caspase- 3/7 reagents. Imaging of plates was carried out in an Incucyte Zoom instrument with a ×10 objective using the standard scan type. Data were analyzed using the integrated software provided with the instrument.
Wu et al., Supplementary figures and tables 5 indicate mean and error bars denote standard deviation from eight wells (from two independent assays). b) A representative immunoblot of histone acetylation level across ten TNBC lines. c) Plot of ECAR and histone acetylation across ten TNBC lines. […] Cell apoptotic activity was quantified by the fluorescent caspase 3/7 active objects. […]
Graph indicate mean and error bars denote standard deviation from four independent assay s. p value computed using a two - stage step -up Benjamini t test j) Immunoblot based quantification of H3K14ac abundance using total H3 as a control in MDA-MB-436 cells following control or 3 μM of the indicated chemical probes during a 5-day treatment. Graph indicate mean and error bars denote standard deviation from three independent assays. p value computed using a two-stage step-up Benjamini t test; **p<0.01; *** p<0.001. k) Immunoblot based quantification of H3K14ac abundance using total […]

MDA-MB-436 cells [3] = experiment: Confluency with BRPF inhibitors and BAY-876; type: cell-based, human; conditions: 3 μM, 7 days
Experimental: Graph indicates mean, error bars denote s.d. from eight wells (from two independent assays) and p-value was computed using the Benjamini-Hochberg t test; ***p < 0.001. d Immunoblot validation of BRPF knockdown in MDA-MB-436 cells. e Quantitative real-time PCR (RT-qPCR) validation of BRPF knockdown in MDA-MB-436 cells. […] Raw data images are available in Supplementary Fig. 4
TNBC cell lines were seeded in sterile, transparent 384-well plates at 500 cells per well in 50 µl media. Chemical probes were delivered in dimethyl sulfoxide (DMSO). Cell confluency at 7 days was evaluated using an Incucyte ZOOM live cell imaging device (Essen Bioscence) and analyzed with the Incucyte ZOOM (2016A) software based on phase contrast image.

For `Cc1c(NC(=O)c2cc(C(N)=O)nc3cc(F)ccc23)c(C(F)(F)F)nn1Cc1ccc(C#N)cc1` [BAY-876], the “NAD+/NADH ratio” value (MDA-MB-436 cells [1]) was “increase” and the glucose uptake (MDA-MB-436 cells [2]) was “inhibits glucose uptake”.

In the case of `Cc1nnc2c3ccccc3c(N[C@@H](C)[C@H](c3ccccc3)N(C)C)nn12` [L-Moses], the Kd (GCN5) is listed as 600 nM.

With `COc1cc2c(cc1NS(=O)(=O)c1ccc(Br)cc1C)n(C)c(=O)n2C` [OF-1] the “apoptosis markers caspase-3/7” value (MDA-MB436 cells) was “induced at a significantly higher level” and the “cell viability, co-treatment with BAY-876” value (MDA-MB-436 cells [3]) was “strongest reduction of cell viability”.

Source: article PMC6478789, “A chemical toolbox for the study of bromodomains and epigenetic signaling” (Nature Communications, 2019)
